According to paper PMC10794345, “Analysis of vascular disruption in zebrafish embryos as an endpoint to predict developmental toxicity” (Archives of Toxicology, 2023):
Read-outs that look alike come from different tables or passages of the source.

What was measured:
[1] = test system: zebrafish embryos (wild-type strain OBI/WIK); assay: Morphological features and heart rate by automated imaging (VAST/FishInspector) at 96 hpf; type: in vivo, zebrafish (D. rerio); conditions: embryos exposed beginning at 3 hpf; not observed when exposure started at 24 hpf
Experimental: Automated imaging of zebrafish developmental phenotypes was conducted with the VAST BioImager (Union Biometrica, Gees, Belgium (Pardo-Martin et al. [2010]; Pulak [2016])) equipped with a large particle sampler (LP sampler, Union Biometrica). Lateral and dorsoventral images were obtained at 10 µm resolution at 96 hpf. Prior to imaging, all embryos were anesthetized by adding 20 µl tricaine solution ([…] tricaine, TRIS 26 mM, pH 7.5 ± 0.1) to each well of the microplate. Images were processed with an amended version (1.70, available via https://codebase.helmholtz.cloud/ufz/tb3-cite/biotox/FishInspector) of the FishInspector imaging software (Teixidó et al. [2019]). The FishInspector software allows to automatically annotate morphological features including body contour, eye, lower mouth tip, pericard, otoliths, notochord, swimbladder, and yolk and to calculate diverse metrics such as feature length, size, curvature indices, or angle between feature-connecting lines. In contrast to the previously published version, FishInspector 1.70 detects morphological features based on a deep learning approach using the Matlab Neural Network Toolbox and Matlab Image Processing Toolbox (Mathworks, Natick, […]). In addition, metric calculation was included into the software, and meta information such as test compound, exposure window or test concentration was associated to each image using a microplate layout file. To facilitate training of the models, two additional programs were generated in Matlab including FishTrainer 0.9 (for training of semantic segmentation models of structural features) and FishClassificator 0.9 (for training of position classes to be used in automated flipping of images) available via same repository as FishInspector software. For image training, image size was adjusted to 450 × 300 pixel to reduce computing time. This resolution was sufficient to detect the selected features (data not shown). For training of the deep learning models, approximately 3000 previously annotated images (Teixidó et al. [2022]) were used. The automated annotations were corrected by the user in the event that they were not adequately detecting visible structures. User-bias was avoided by a blinded assessment of images.
FishInspector provided a JSON file corresponding to each image file containing the coordinates of all features and the applied smoothing factor. All images and videos used for this publication can be found at the BioImage Archive S-BIAD954 (https://www.ebi.ac.uk/biostudies/bioimages/studies/S-BIAD954). For each image, a csv file was generated containing calculated metrics. The software automatically provides a summary table containing metrics r of individual embryos. […] The analyzed file includes endpoint names based on the FishInspector software. […]

[2] = test system: zebrafish embryos (wild-type strain OBI/WIK); assay: ISV inhibition (angiogenesis) by video subtraction in wildtype zebrafish embryos; type: in vivo, zebrafish (D. rerio)
Experimental: A wild-type adult zebrafish strain (D. rerio, strain OBI/WIK, generation F3), originating from an in-house cross of zebrafish strains UFZ-OBI and WIK, was used for all experiments. The Tg(kdr:EGFP) strain was kindly provided by the University of Jena. Fish were fed twice daily with dry food (SDS-400, Special Diets Services, Essex England) and once daily with Artemia sp. […] Spawning trays were inserted 4–6 h before the end of the light cycle. The following day, spawning was initiated by the onset of light and eggs were collected within 1 h. Exposure in all experiment was ceased at 96 hpf.
Exposure was conducted in rectangular 96-well microplates (Clear Polystyrene, flat bottom, Uniplate, Whatman, GE Healthcare) covered by a lid with a test volume of 400 µL of exposure media. For each replicate one embryo per well and 16 wells per concentration were assessed. Experiments were performed with at least two replicates on independent days and breeding.
To determine the number of ISVs in the trunk region, high-resolution images of 96 hpf-old zebrafish embryos were recorded using a Leica DM6B-Z microscope (Leica, Wetzlar, Germany) attached to the VAST imaging system, and a camera (Leica DFC9000 sCMOS, objective: HC APO L U-V-I 20x/0.50 WATER UV). A series of 20 images with a frame rate of 20 images per second and a 2 × 2 pixel binning was recorded in autofocus mode for each embryo.
A series of MATLAB scripts (Supplement File ‘Workflow 3.m’ and ‘Workflow 4.m’) was used to convert the image series into a video and to visualize the blood vessel by applying a video subtraction approach (Figure SI1). Briefly, each video frame was subtracted from the average image of the whole image sequence and converted to a binary image by applying a Gaussian blur (σ = 5) and a threshold of 0.025 to obtain optimal contrast in binary images. Subsequently, the sum of all binary images was calculated. Due to movement of the blood cells the subtraction approach removed all parts from the image which were not moving resulting in an image of the blood vessels. This binary image of the blood vessel network in the zebrafish embryo tail was then processed with the FishInspector annotation software (version 1.70). […] The number of ISVs was obtained by application of a KNIME workflow to FishInspector annotation files. Subsequently concentration–response analysis was conducted using a KNIME workflow. The coefficient of variation (CV) of controls was calculated for both the subtraction and the fluorescence-based method by dividing the standard deviation of individual embryos with the control mean: CVControl=SD/Mean.
The assessment of lethality and morphological features was based on the percentage of embryos affected. Therefore, morphological endpoints were dichotomized, i.e. feature metrics were converted to the percentage of embryos deviating from controls. An embryo was considered to deviate when it was outside 1.5-fold of the standard deviation range of the mean of the control group. The control mean was determined by pooling control embryos across all experiments (n = 160) (available at git.ufz.de). For heart rate and angiogenesis (number of ISVs) the analysis was based on normalized values, i.e. for each experiment the values of the treatment were divided by the control value. The experiments were designed to calculate effect concentrations based on modelled curve fits. Different concentrations were used in at least two independent replicates, with means of each replicate based on the exposure of 16 different embryos per concentrations. Effect concentration were only modeled when three conditions were met. […] (2) The Akaike information criterion (AIC) for the log-logistic model was lower than the AIC for a linear model with slope 0 (lower p values for the letter would indicate that there is no trend in the data).

[3] = Danio rerio, 24–96 hpf exposure, ± 95% confidence intervals, read-out: IC50 of ISV inhibition

Row | Structure (SMILES) | Swim bladder inflation (in words) [1] | IC50 ([2]; 3–96 hpf exposure, ± 95% confidence intervals, read-out: IC50 of ISV inhibition) [nM] | IC50 ([2]; 24–96 hpf exposure, ± 95% confidence intervals, read-out: IC50 of ISV inhibition) [nM] | IC50 ([2]; exposure window not stated at this place, read-out: IC50 / loss of ISV number, current study as restated in discussion) [nM] | IC50 [2, 3] [nM] | IC50 ([2]; Danio rerio, 3–96 hpf exposure, ± 95% confidence intervals, read-out: IC50 of ISV inhibition) [nM]
1 | CN(C)c1ccc(C=C2C(=O)Nc3ccccc32)cc1 [SU4312] | impaired swim bladder inflation | 2300 ± 420 | 2590 ± 600 | 90 |  | 
2 | Cc1cc(C)c(/C=C2\C(=O)Nc3ccccc32)[nH]1 [SU5416] | impaired swim bladder inflation |  |  |  | 2100 ± 350 | 
3 | CNC(=O)c1cc(Oc2ccc(NC(=O)Nc3ccc(Cl)c(C(F)(F)F)c3)cc2)ccn1 [Sorafenib] | impaired swim bladder inflation |  |  |  | 1360 ± 240 | 1370 ± 100
